Measurements reported in US12643891B2, “SPAK/OSR inhibitors and methods of using same” (YALE UNIVERSITY, priority 2019, dated 2026).

Experiments:
mDCT15 cells = assay: Cell volume of mDCT15 cells by microscopic imaging; assay type: cell-based, mouse; details: 40 μM, four-hour time course
Method: FIGS. 12A-12F illustrate the finding that (7a) depletes phosphorylated NKCC1 and reduces cell volume in mDCT15 cells. FIG. 12A: Structures of (7a) and analog (7b). FIG. 12B: In vitro dose-dependent inhibition comparing (7a) and (7b) evaluated by western blot using T^PNKCC1. FIG. 12C: Western blot analysis of NKCC1 phospho-depletion in mDCT15 cells under various conditions. FIG. 12D: mDCT15 cells were incubated with 40 μM (7a), 40 μM Cabozantinib (XL-184), or equivalent volume of DMSO vehicle for 1 hr, 2 hr, 3 hr, and 4 hr. NKCC1 phosphorylation was monitored using the T^PNKCC1 antibody and compared to total NKCC1. FIG. 12E: HEK 293 induced to express KCC were incubated with 40 μM (7a), 40 μM Cabozantinib (XL-184), or equivalent volume of DMSO vehicle for 1 hr, and 2 hr time points. KCC phosphorylation was monitored using the T^PKCC antibody and compared to total KCC using C-Myc antibody. FIG. 12F: mDCT15 cells were incubated with 40 μM (7a), 40 μM Cabozantinib (XL-184), or equivalent volume of DMSO vehicle for a 1 hr, 2 hr, 3 hr, and 4 hr time course. After incubation the cells were imaged using 20× bright field microscopy. 1 hr and 4 hr time points are shown.
FIG. 13 comprises images of mDCT15 cells incubated with 40 μM (7a) 40 μM, Cabozantinib (XL-184), or equivalent volume of DMSO vehicle for a 1 hr, 2 hr, 3 hr, and 4 hr time course (partially shown in FIG. 12F). […]

[1] = test system: NKCC1 phosphorylation in mDCT15 cells; assay: NKCC1 phosphorylation in mDCT15 cell lysates (T^PNKCC1 immunoblot); assay type: cell-based, mouse; details: 40 μM, span of 4 hrs
Method: Mouse distal convoluted tubule (mDCT15) cells (Naguro, et al., 2012, Nature comm. 3:1285) were cultured in DMEM/Ham's F-12 media supplemented with 1% PSN and 5% FBS. Before each set of experiments 2×10^5 cells/well were plated in 24-well plates treated with 100 ug/mL poly-D-lysine and grown at 37° C. in 5% CO2 to ˜95% confluency. […] […] […] All media was removed and 100 μL of cell culture lysis buffer (100 mM Tris/HCl pH 7.4, 300 mM NaCl, 5 mM EDTA, 5 mM EGTA, 2 mM DTT, 10% glycerol, 2% triton X-100, Roche protease inhibitor, and phosphatase inhibitor cocktail 3 (Sigma-Aldrich St. Louis, MO)) was added to each well, transferred to a clean 1.5 mL Eppendorf tube, and incubated on ice for a minimum of 10 min. The cell lysates were centrifuged at 21,000 G for 10 min. The clarified lysate was stored at −80° C.
Protein samples were subjected to electrophoresis on polyacrylamide gels and transferred to PVDF membranes. The membranes were incubated overnight in TBST blocking buffer containing 5% milk (w/v) (for the antibodies raised in sheep) or 3% BSA (w/v) (for all other antibodies). […] Signal was detected by enhanced chemiluminescence (Bio-rad) imaged on a ChemiDoc™ XRS+ CCD camera.

pancreatic cancer cells = assay: Pancreatic cancer cell migration in vitro; assay type: cell-based; details: FIG. 36
GBM612 cells = assay: On target activity in GBM612 cells (Western blot); assay type: cell-based, human; details: on target activity in GBM cells
SPAK [2] = target: T1, SPAK (Homo sapiens, UniProt Q9UEW8); assay: In vitro SPAK ELISA assay monitoring NKCC1 phosphorylation (T^PNKCC1 antibody); assay type: biochemical; details: on target activity in vitro; read-out: IC50 In vitro
T1 construct: GST (N, cleaved yes); made in house; host or cells: E. coli EcAR7 with Sep-OTS

SPAK [3] = target: T1, SPAK; assay: as above; assay type: biochemical; details: analogues of (6a)
Method: The GlaxoSmithKline published kinase inhibitor set, PKIS (Dranchak, et al., 2013, Plos One 8), was used to evaluate potential SPAK drug inhibitor candidates. The pilot inhibitor screen tested the capability of 320 compounds to inhibit the kinase activity of purified co-expressed SP382 WNK1 (1-661)/WT SPAK using an ELISA based screen monitoring a reduction in NKCC1 phosphorylation with the NKCC1 phospho-specific antibody, T^PNKCC1. 10 nL of each inhibitor compound (final concentration 20 μM) or DMSO vehicle controls were added to dry 384 well-flat bottom low volume non-binding assay plates (Corning) using an Echo 550 Acoustic dispenser (Labcyte). […] The assay plates were centrifuged at 200 g for 1 min, then incubated at RT for 30 min. Following inhibitor incubation, the kinase reaction was initiated with 1 μL of 50 μM ATP (final concentration 10 uM) or 1 μL of Kinase reaction buffer for negative controls and reacted for 1 hr at 37° C. The reaction was then quenched with 5 μL Kinase Stop buffer (100 mM Tris pH 8, 300 mM NaCl, 40 mM EDTA) and incubated for 1 min with shaking at 450 rpm. 2 μL of each quenched reaction was added to 18 μL TBS (50 mM Tris pH 8, 150 mM NaCl) in white 384-well Nunc Maxisorp plates (Thermo Scientific) using a PlateMate Plus (Thermo Scientific). The plate was shaken for 1 min at 450 rpm, sealed and incubated at 4° C. overnight to allow the protein contents of the reaction to bind to the Maxisorp plate. The next morning the solution was removed, and the plates were then subjected to 3 washes in TBST (50 mM Tris pH 7.5, 150 mM NaCl. 0.05% Tween 20) for 5 min each wash with shaking at 400 rpm. The plates were blocked with TBST buffer containing 3% BSA (w/v) at RT for 2 hrs at RT. The blocking buffer was removed, and the plates were immunoblotted with 1:50,000 dilution of T^PNKCC1 in blocking buffer for 2 hrs at RT. The plates were then subjected to 3 washes in TBST for 5 min each wash with shaking at 400 rpm, followed by incubating with 1:10,000 dilution of 2° DAR-HPR antibody in blocking buffer for 1 hr at RT. The plates were washed again 3 times in TBST for 5 min each wash with shaking at 400 rpm. Signal was detected by SuperSignal ELISA Pico Chemiluminescent substrate (ThermoScientific), and read on an EnVision multi-label plate reader (Perkin-Elmer).

| SMILES | Cell volume change, mDCT15 cells (mDCT15 cells) | NKCC1 phosphorylation over time without osmotic triggers [1] | pancreatic cancer cell migration (pancreatic cancer cells) | Activity in GMB612, 0.2 μM (GBM612 cells) | Activity in GMB612, 2 μM (GBM612 cells) | IC50 (SPAK [2]) [µM] | SPAK inhibition (SPAK [3]) |
| --- | --- | --- | --- | --- | --- | --- | --- |
| COc1cc2nccc(Oc3ccc(NC(=O)C4(C(=O)Nc5ccc(F)cc5)CC4)cc3)c2cc1OC [XL-184, Cabozantinib malate] | neither XL-184 nor Vehicle had any detectable change | no discernable effect on NKCC1 phosphorylation | – | – | – | – | – |
| Nc1ccn([C@@H]2O[C@H](CO)[C@@H](O)C2(F)F)c(=O)n1 [Gemcitabine, reference compound] | – | – | does not | – | – | – | – |
| COc1ccc(Nc2ncc(C#N)c(Nc3ccccc3-c3nc[nH]n3)n2)cc1N1CCN(C)CC1 [(6g), 4-((2-(1H-1,2,4-triazol-3-yl)phenyl)amino)-2-((4-methoxy-3-(4-methylpiperazin-1-yl)phenyl)amino)pyrimidine-5-carbonitrile] | – | – | – | No | No | 12 | – |
| COc1ccc(Nc2ncc(C#N)c(Nc3cccc4c3C(=O)NC4)n2)cc1N1CCN(C)CC1 [(6b)] | – | – | – | Yes | Yes | 0.05 | measurable SPAK inhibition |
| CONC(=O)c1ccccc1Nc1nc(Nc2ccc(OC)c(N3CCN(C)CC3)c2)ncc1C#N [(6e), 2-((5-cyano-2-((4-methoxy-3-(4-methylpiperazin-1-yl)phenyl)amino)pyrimidin-4-yl)amino)-N-methoxybenzamide] | – | – | – | No | Yes | 2.6 | measurable SPAK inhibition |
| COc1ccc(Nc2ncc(C#N)c(Nc3ccccc3-c3nnn[nH]3)n2)cc1N1CCN(C)CC1 [(6f), 4-((2-(1H-tetrazol-5-yl)phenyl)amino)-2-((4-methoxy-3-(4-methylpiperazin-1-yl)phenyl)amino)pyrimidine-5-carbonitrile] | – | – | – | No | Yes | 3.5 | measurable SPAK inhibition |
| COc1ccc(Nc2ncc(C#N)c(Nc3ccccc3-c3ncco3)n2)cc1N1CCN(C)CC1 [(6c), 2-((4-methoxy-3-(4-methylpiperazin-1-yl)phenyl)amino)-4-((2-(oxazol-2-yl)phenyl)amino)pyrimidine-5-carbonitrile] | – | – | – | No | No | 9 | – |
| CNC(=O)c1ccccc1Nc1nc(Nc2ccc(OC)c(N3CCN(C)CC3)c2)ncc1C#N [(6d), 2-((5-cyano-2-((4-methoxy-3-(4-methylpiperazin-1-yl)phenyl)amino)pyrimidin-4-yl)amino)-N-methylbenzamide] | – | – | – | No | Yes | 5.2 | measurable SPAK inhibition |
